This is an account of results in patent US20260138962A1, “SYNTHESIS OF DERIVATIVES OF SIPH[…] THERAPEUTIC USE THEREOF” (priority 2022, published 2026).

In general, IC50 refers to the concentration at which inhibition is half-maximal. The inhibition is the drop in the measured response relative to a control, in per cent.

One data set has as its system MDCK cells. Particulars: all test concentrations, 50.0 to 3.75 μg/mL.
In data set [1] the test system is SARS-CoV-2 Wuhan isolate (wild type). Nature of the data set: microbe, parasite or virus in culture. The data set is classed as cell-based. As to conditions: Severe acute respiratory syndrome coronavirus 2, Vero C1008.
The subject of data set [2] is Influenza A-type virus (strain 108 617). Briefly: Cytopathic Effect Reduction Assay against Influenza A (CERA-1) in MDCK cells. The data set is classed as cell-based. As to conditions: for IC50: calculated with GraphPad Prism.

SMILES strings stand for the structures. In brackets after ≈: the same amount, converted by molar mass. Several values for one entry are separate records, joined by “and”; a condition that tells them apart may be missing. Equal values may be shown once.

With `CC1=C2C[C@@H]3[C@@H](C)C=CC(=O)[C@@]3(C)C[C@@]2(O)OC1=O` [HLS, (4aR,5S,8aS,9aR)-9a-hydroxy-3,5,8a-trimethyl-4a,5,9,9a-tetrahydronaphtho[2,3-b]furan-2,8(4H,8aH)-dione], the toxicity entry in the data set with MDCK cells is given as “no toxicity”. In addition, the half-inhibitory concentration (IC50) is 3.03 µg/mL (≈ 11.6 µM) in data set [1] (Wuhan strain, in vitro) and 9.2 µg/mL (≈ 35.1 µM) in data set [2] (Influenza A virus). Besides, the inhibition at 0.5 µg/mL in data set [1] (Wuhan, 0.5 μg/ml, Vero E6 cells) came out at 25%. Also, in data set [1] (Wuhan, 2 μg/ml, Vero E6 cells), the inhibition at 2 µg/mL came out at 50%. The inhibition at 5 µg/mL in data set [1] (Wuhan, 5 μg/ml, Vero E6 cells) is 75%. The inhibition at 16 µg/mL in data set [1] (Wuhan, 16 μg/ml, Vero E6 cells) is 100%. Also, the inhibition at 50 µg/mL in data set [1] (Wuhan, 50 μg/ml, Vero E6 cells) was determined as 100%. In addition, the inhibition in data set [2] (50.0 μg/mL) is > 100% and > 123%. Further, the inhibition at 3.75 µg/mL in data set [2] (Influenza A virus, MDCK, 3.75 μg/mL) is > 30%.

As to `NC(=O)c1ncn([C@@H]2O[C@H](CO)[C@@H](O)[C@H]2O)n1` [ribavirin, reference compound], the inhibition at 50 µg/mL in data set [2] (Influenza A virus, MDCK, 50.0 μg/mL) was > 105%. Further, in data set [2] (Influenza A virus), the IC50 was 2.16 µg/mL (≈ 8.84 µM).
